According to patent US4806534A, “Therapeutically active flavonyl-1,4-dihydrophyridines” (Recordati S.A., Chemical & Pharmaceutical Company, priority 1985, dated 1989):
Read-outs that look alike come from different tables or passages of the source.

Experiments:
[1] = LD50 acute toxicity in mice, i.p. and p.o. (Weil method); conditions: mouse, in vivo
Experimental: The LD50 of the novel compounds of the invention was determined in mice, both i.p. and p.o., following the method described by C. S. Weil, Biometrics, 8, 249 (1952).

urinary bladder = test: Cystometric recordings in conscious rats (urodynamic parameters); type: in vivo; conditions: conscious rat, perfusion started 60 min after administration
Experimental: The activity on the urodynamic parameters was detected by cystometric recordings, carried out in conscious rats, according to the method of […] et al, IRCS Medicinal Science, in press (1986), similar to that described by Sjogren, Acta Pharmacol. Toxicol., 39, 177 (1976). The intravesical pressure was recorded during a continuous infusion of saline (37° C.) into the urinary bladder at the constant rate of 0.15 ml/min. […] The perfusion started 60 minutes after administration of the compound.

Compound | LD50 ([1]; ip, read-out: LD50 i.p.) [mg/kg] | LD50 ([1]; po, read-out: LD50 p.o.) [mg/kg] | % Change BVC (bladder volume capacity) (urinary bladder; 10 mg/kg p.o.) | % Change MP (micturition pressure) (urinary bladder; 10 mg/kg p.o.) [%] | % Change BVC (bladder volume capacity) (urinary bladder; 30 mg/kg p.o.) | % Change MP (micturition pressure) (urinary bladder; 30 mg/kg p.o.) [%]
CC1=C(C(=O)OCCN2CCCCC2)C(c2cccc3c(=O)c(C)c(-c4ccccc4)oc23)C(C(=O)OC(C)C)=C(C)N1 (centres unmarked) [iv, Isopropyl 2,N-piperidinoethyl 2,6-dimethyl-4-(3-methylflavon-8-yl)-1,4-dihydropyridine-3,5-dicarboxylate] | 222 | > 3000 |  |  |  | 
CC1=C(C(=O)OCCN(C)Cc2ccccc2)C(c2cccc3c(=O)c(C)c(-c4ccccc4)oc23)C(C(=O)OC(C)C)=C(C)N1 (centres unmarked) [v, isopropyl 2-(N-benzyl-N-methylamino)ethyl 2,6-dimethyl-4-(3-methylflavon-8-yl)-1,4-dihydropyridine-3,5-dicarboxylate] | 959 | > 3000 | +19% | -16 | +22% | -23
CCOC(=O)C1=C(C)NC(C)=C(C(=O)OC)C1c1cccc2c(=O)c(C)c(-c3ccccc3)oc12 (centres unmarked) [viii, Methyl ethyl 2,6-dimethyl-4-(3-methylflavon-8-yl)-1,4-dihydropyridine-3,5-dicarboxylate] | > 1000 | > 3000 |  |  |  | 
CC1=C(C(=O)OCCCl)C(c2cccc3c(=O)c(C)c(-c4ccccc4)oc23)C(C(=O)OC(C)C)=C(C)N1 (stereo not drawn) [iii, Isopropyl beta-chloroethyl 2,6-dimethyl-4-(3-methylflavon-8-yl)-1,4-dihydropyridine-3,5-dicarboxylate] | > 1000 | > 3000 |  |  | +15% | -1
C#CCOC(=O)C1=C(C)NC(C)=C(C(=O)OC)C1c1cccc2c(=O)c(C)c(-c3ccccc3)oc12 (centres unmarked) [xii, Methyl propargyl 2,6-dimethyl-4-(3-methylflavon-8-yl)-1,4-dihydropyridine-3,5-dicarboxylate] | 597 | > 3000 |  |  |  | 
COC(=O)C1=C(C)NC(C)=C(C(=O)OC)C1c1cccc2c(=O)c(C)c(-c3ccccc3)oc12 [i, Dimethyl 2,6-dimethyl-4-(3-methylflavon-8-yl)-1,4-dihydropyridine-3,5-dicarboxylate] | 889 | > 3000 | +18% | -14 | +21% | -19
CC1=C(C(=O)OCCN(C)CCC(c2ccccc2)c2ccccc2)C(c2cccc3c(=O)c(C)c(-c4ccccc4)oc23)C(C(=O)OC(C)C)=C(C)N1 (centres unmarked) [vi, isopropyl 2-(N-(3,3-diphenylpropyl)-N-methylamino)ethyl 2,6-dimethyl-4-(3-methylflavon-8-yl)-1,4-dihydropyridine-3,5-dicarboxylate] | > 1000 | > 3000 |  |  | +31% | -1
